Laboratory results taken from patent publication US6107316A, “Method for treating protozoal infections” (priority 1998, dated 2000).
Values after ≈ are worked out from the molar mass of the structure shown. Read-outs that look alike come from different tables or passages of the source.

Tests used:
Giardia lamblia = assay: in vitro growth inhibitory activity against Giardia lamblia; type: cell-based; settings: Giardia duodenalis; concentration required to inhibit growth by 50%
Experimental: 35, pp. 2198-2202 (1991). EC50 values for test compounds, expressed in parts per million (ppm), were calculated from dose response curves and are presented in Table 4. As used herein, the terminology "EC50" means the concentration of test compound required to inhibit growth by 50% are compared to a control lacking the test compound. Metronidazole was included as a standard in the tests for comparative purposes.

Toxoplasma gondii [1] = assay: growth inhibition of T. gondii in L929 host cells ([3H]-uracil incorporation); type: cell-based; settings: Toxoplasma gondii
Experimental: (§1) Compounds were tested for it vitro growth inhibitory activity against Toxoplasma gondii replication in L929 (L929-ATCC CCL 1, mouse connective tissue) or HFF (human foreskin fibroblast) host cells using the [^3 H]-uracil incorporation technique as follows. Host cells were grown in 96-well flat-bottom microtiter plates at 37° C in a 5% carbon dioxide environment in modified Eagle's medium containing penicillin, streptomycin and 10% fetal equine serum. Wells containing a homogeneous confluent monolayer of host cells were infected with T. gondii tachyzoites at a ratio of 3 parasites per cell (approximately 6×10^4 tachyzoites per well containing 100 μl of medium). […] Two hours post infection, the cultures were washed to remove free parasites and the various dilutions of test compound were added. Cells were subsequently collected at 24, 48 and 72 hours. Four hours prior to each harvesting 50 Al of [^3 H]-uracil (1 μCi) was added. Cells were collected using a cell harvester and incorporated radioactivity was measured using a scintillation counter. […]

Toxoplasma gondii [2] = assay: growth inhibition of T. gondii in HFF host cells ([3H]-uracil incorporation); type: cell-based; settings: Toxoplasma gondii
Experimental: as §1

Entamoeba histolytica = assay: in vitro growth inhibitory activity against E. histolytica; type: cell-based
Text: 35, pp. 2198-2202 (1991). Metronidazole was included as a standard in the test for comparative purposes.

Tetrahymena pyriformis = assay: in vitro growth inhibitory activity against the ciliate Tetrahymena pyriformis; type: cell-based, Tetrahymena pyriformis (ATCC strain 30005); settings: read-out: EC50 Tetrahymena pyriformis
Experimental: Compounds were evaluated for in vitro growth inhibitory activity against the ciliate Tetrahymena pyriformis, which was used as an indicator organism for the Apicomplexia since by several criteria the ciliates and Apicomplexa are closely related (Edlind T. D. et al., Mol. Phylogenet. Evol. vol. 5, pp. 359-367, 1996). T. pyriformis (ATCC strain 30005) was grown in 1 ml ATCC medium 357 at 25° C. in 4 ml polyallomer culture tubes without shaking. Compounds were dissolved in dimethylsufoxide (DMSO) and added to the cultures (containing 3,000 cells/ml) such that the final DMSO concentration was 0.1-0.3%. […] Parasitol. vol. 84, pp. 355-370, 1996) and Cryptosporidium parvum (Arrowood et al., FEMS Microbial. Lett., vol. 136, pp. 245-249, 1996) were tested for comparison.

Leishmania major = assay: in vitro growth inhibitory activity against L. major promastigotes; type: cell-based
Text: 35, pp. 2198-2202 (1991).

[3] = cytotoxicity towards L929 host cells (Cell Titer 96); settings: mouse, % Inhibition of host cell growth (values in parenthesis)
Experimental: (§2) Cytotoxicity of the test compounds towards host cells was determined using the Cell Titer 96™ it (Promega Corporation, Madison, Wis.) as follows. Cells were seeded at a concentration of 5×10^3 cells per well containing 100 μl of medium in 96-well flat-bottom microtiter plates and incubated at 37° C. in a 5% carbon dioxide environment for 4 hours. Dilutions of the test compounds prepared as described above were then added, and incubation continued for 24, 48 or 72 hours. Four hours before each of these time points the growth medium containing test compound was replaced with 100 μl of fresh medium followed by addition of 16 μl of the kit dye solution. After incubation at 37° C. for another 4 hours, 100 μl of the kit solubilization/stop solution was added to each well, the contents of the wells were mixed and the plates kept 1 hour at room temperature. The plates were then read spectrophotometrically in a plate reader at a wavelength of 570 nm. […] Atovaquone was included in the test as a standard.

Cryptosporidium parvum = assay: growth inhibitory activity against C. parvum in host MDBKF5D2 cells (immunofluorescence); type: cell-based; settings: Cryptosporidium parvum, 48 h
Experimental: Compounds were tested for in vitro growth inhibitory activity against C. parvum grown in host MDBKF5D2 cells and for toxicity towards the host cells as follows. […] To test for toxicity towards the host cells, the media containing test compound (200 μl) were introduced into two wells of a 96 well microtiter plate containing confluent MDBKF5D2 cell monolayers and two wells without monolayers, and incubated at 37° C. in an 8% carbon dioxide environment. After 48 hours, the tetrazolium salt MTS (Owen's solution) and phenazine methosulfate were added to each well at concentrations of 333 μg/ml and 25 μM, respectively. The plate was returned to the incubator in the dark to develop for 2 hours, then 100 μl of each supernatant was transferred to a new microtiter plate and read spectrophotometrically in a plate reader at a wavelength of 490 nm. Percent toxicity was calculated by subtracting the mean optical density (OD) of the drug supernatants from the OD of medium control supernatants (no drug), dividing by the OD of the medium control, and multiplying by 100. To test for growth inhibitory activity against C. parvum, 3×10^4 oocysts per well were incubated in mentioned concentrations of each drug at 37° C. (8% CO2) on confluent MDBKF5D2 cell monolayers in 96 well microtiter plates. After 48 hours, the level of infection in each well was determined by means of an immunofluorescence assay. Percent inhibition of growth was calculated by subtracting the mean parasite count in the wells containing test compound from the mean parasite count in the medium control wells (no test compound), dividing by the mean parasite count in the medium control wells, and multiplying by 100. Paromomycin was included in the test as a standard.

[4] = cytotoxicity towards HFF host cells (Cell Titer 96); settings: human, % Inhibition of host cell growth (values in parenthesis)
Experimental: as §2

[5] = L929, 24 h, L929 host cells, 0.5 μg/ml, 24 hours, read-out: % Inhibition
[6] = L929, 24 h, L929 host cells, 5.0 μg/ml, 24 hours, read-out: % Inhibition
[7] = L929, 48 h, L929 host cells, 0.5 μg/ml, 48 hours, read-out: % Inhibition
[8] = L929, 48 h, L929 host cells, 5.0 μg/ml, 48 hours, read-out: % Inhibition
[9] = L929, 72 h, L929 host cells, 0.5 μg/ml, 72 hours, read-out: % Inhibition
[10] = L929, 72 h, L929 host cells, 5.0 μg/ml, 72 hours, read-out: % Inhibition
[11] = 24 h, HFF host cells, 0.5 μg/ml, 24 hours, read-out: % Inhibition
[12] = 24 h, HFF host cells, 5.0 μg/ml, 24 hours, read-out: % Inhibition
[13] = 48 h, HFF host cells, 0.5 μg/ml, 48 hours, read-out: % Inhibition
[14] = 48 h, HFF host cells, 5.0 μg/ml, 48 hours, read-out: % Inhibition
[15] = 72 h, HFF host cells, 0.5 μg/ml, 72 hours, read-out: % Inhibition
[16] = 72 h, HFF host cells, 5.0 μg/ml, 72 hours, read-out: % Inhibition

## CCC(C)(NC(=O)c1cc(Cl)c(N)c(Cl)c1)C(=O)CCl (stereo not drawn) [Compound 1]
Giardia lamblia
  EC50: 0.06 µg/mL (≈ 0.178 µM)
Toxoplasma gondii [1]; [5]
  inhibition at 0.5 µg/mL: 7.8%
Toxoplasma gondii [1]; [6]
  inhibition at 5 µg/mL: 10.8%
Toxoplasma gondii [1]; [7]
  inhibition at 0.5 µg/mL: 80.4%
Toxoplasma gondii [1]; [8]
  inhibition at 5 µg/mL: 75.5%
Toxoplasma gondii [1]; [9]
  inhibition at 0.5 µg/mL: 95.4%
Toxoplasma gondii [1]; [10]
  inhibition at 5 µg/mL: 78.2%
Toxoplasma gondii [2]; [11]
  inhibition at 0.5 µg/mL: 47.6%
Toxoplasma gondii [2]; [12]
  inhibition at 5 µg/mL: 88%
Toxoplasma gondii [2]; [13]
  inhibition at 0.5 µg/mL: 96.1%
Toxoplasma gondii [2]; [14]
  inhibition at 5 µg/mL: 99.3%
Toxoplasma gondii [2]; [15]
  inhibition at 0.5 µg/mL: 91.3%
Toxoplasma gondii [2]; [16]
  inhibition at 5 µg/mL: 99.2%
Entamoeba histolytica
  EC50: 38 µg/mL (≈ 113 µM)
Tetrahymena pyriformis; 24 hours, 25° C.
  EC50: 0.02 µg/mL (≈ 0.0592 µM)
Leishmania major
  EC50: 0.2 µg/mL (≈ 0.592 µM)
[3]; L929, 0.5 μg/ml
  inhibition at 24 h: 1.5%
  inhibition at 48 h: 11.6%
  inhibition at 72 h: 31.3%
[3]; L929, 5.0 μg/ml
  inhibition at 24 h: 19.7%
  inhibition at 48 h: 61.8%
  inhibition at 72 h: 81.1%
Cryptosporidium parvum
  inhibition at 0.1 µM: 23.1%
  inhibition at 1 µM: 29.2%
  inhibition at 10 µM: 34.2%
Cryptosporidium parvum; 100 μM
  inhibition at 100 µM: 81.1%
[4]; 0.5 μg/ml
  inhibition at 24 h: 1.6%
  inhibition at 48 h: 0%
  inhibition at 72 h: 1.4%
[4]; 5.0 μg/ml
  inhibition at 24 h: 14.7%
  inhibition at 48 h: 13.5%
  inhibition at 72 h: 47.6%

## CCC(C)(NC(=O)c1cc(Cl)c(F)c(Cl)c1)C(=O)CCl (stereo not drawn) [Compound 9]
Giardia lamblia
  EC50: 0.03 µg/mL (≈ 0.0881 µM)
Toxoplasma gondii [1]; [5]
  inhibition at 0.5 µg/mL: 29%
Toxoplasma gondii [1]; [6]
  inhibition at 5 µg/mL: 28.2%
Toxoplasma gondii [1]; [7]
  inhibition at 0.5 µg/mL: 86.3%
Toxoplasma gondii [1]; [8]
  inhibition at 5 µg/mL: 77.3%
Toxoplasma gondii [1]; [9]
  inhibition at 0.5 µg/mL: 90.9%
Toxoplasma gondii [1]; [10]
  inhibition at 5 µg/mL: 95.6%
Toxoplasma gondii [2]; [11]
  inhibition at 0.5 µg/mL: 58.7%
Toxoplasma gondii [2]; [12]
  inhibition at 5 µg/mL: 74.3%
Toxoplasma gondii [2]; [13]
  inhibition at 0.5 µg/mL: 77.6%
Toxoplasma gondii [2]; [14]
  inhibition at 5 µg/mL: 97%
Toxoplasma gondii [2]; [15]
  inhibition at 0.5 µg/mL: 0%
Toxoplasma gondii [2]; [16]
  inhibition at 5 µg/mL: 96.3%
Tetrahymena pyriformis; 24 hours, 25° C.
  EC50: 0.004 µg/mL (≈ 0.0117 µM)
Leishmania major
  EC50: 0.1 µg/mL (≈ 0.294 µM)
[3]; L929, 0.5 μg/ml
  inhibition at 24 h: 6.3%
  inhibition at 48 h: 0%
  inhibition at 72 h: 8.5%
[3]; L929, 5.0 μg/ml
  inhibition at 24 h: 20.2%
  inhibition at 48 h: 65.2%
  inhibition at 72 h: 90.4%
Cryptosporidium parvum
  inhibition at 0.1 µM: 1.8%
  inhibition at 1 µM: 27.9%
  inhibition at 10 µM: 32.8%
[4]; 0.5 μg/ml
  inhibition at 24 h: 1.1%
  inhibition at 48 h: 1.1%
  inhibition at 72 h: 0%
[4]; 5.0 μg/ml
  inhibition at 24 h: 2.4%
  inhibition at 48 h: 21.3%
  inhibition at 72 h: 6.3%

## CCC(C)(NC(=O)c1cc(Cl)c(C)c(Cl)c1)C(=O)CCl (stereo not drawn) [Compound 10]
Giardia lamblia
  EC50: 0.06 µg/mL (≈ 0.178 µM)
Toxoplasma gondii [1]; L929, 24 h
  inhibition at 0.5 µg/mL: 0%
  inhibition at 5 µg/mL: 20.5%
  inhibition at 25 µg/mL: 19.6%
Toxoplasma gondii [1]; L929, 48 h
  inhibition at 0.5 µg/mL: 0%
  inhibition at 5 µg/mL: 80.5%
  inhibition at 25 µg/mL: 86.5%
Toxoplasma gondii [1]; L929, 72 h
  inhibition at 0.5 µg/mL: 2.3%
  inhibition at 5 µg/mL: 90.4%
  inhibition at 25 µg/mL: 98%
Toxoplasma gondii [2]; 24 h
  inhibition at 0.5 µg/mL: 2.3%
  inhibition at 5 µg/mL: 8.8%
  inhibition at 25 µg/mL: 63.4%
Toxoplasma gondii [2]; 48 h
  inhibition at 0.5 µg/mL: 2.1%
  inhibition at 5 µg/mL: 1.4%
  inhibition at 25 µg/mL: 95.7%
Toxoplasma gondii [2]; 72 h
  inhibition at 0.5 µg/mL: 6.3%
  inhibition at 5 µg/mL: 0%
  inhibition at 25 µg/mL: 97.3%
Entamoeba histolytica
  EC50: 6 µg/mL (≈ 17.8 µM)
Tetrahymena pyriformis; 24 h
  EC50: 0.004 µg/mL (≈ 0.0119 µM)
Leishmania major
  EC50: 0.2 µg/mL (≈ 0.594 µM)
[3]; L929, 0.5 μg/ml
  inhibition at 24 h: 3.7%
  inhibition at 48 h: 0%
  inhibition at 72 h: 2.2%
[3]; L929, 5.0 μg/ml
  inhibition at 24 h: 2.8%
  inhibition at 48 h: 0%
  inhibition at 72 h: 3.5%
[3]; L929, 25.0 μg/ml
  inhibition at 24 h: 2.2%
  inhibition at 48 h: 4.5%
  inhibition at 72 h: 7.6%
[4]; 0.5 μg/ml
  inhibition at 24 h: 0%
  inhibition at 48 h: 0%
  inhibition at 72 h: 3%
[4]; 5.0 μg/ml
  inhibition at 24 h: 1.4%
  inhibition at 48 h: 7.6%
  inhibition at 72 h: 3.5%
[4]; 25.0 μg/ml
  inhibition at 24 h: 6.7%
  inhibition at 48 h: 9.3%
  inhibition at 72 h: 4.8%
